One assay deals with T1, human Kv1.3 (CHO) (Homo sapiens, UniProt P22001).
T1 construct: expressed in transfected cells; host or cells: CHO
In words: cell-based.

The next assay has as its target T2, human Kv1.1 (HEK293) (Homo sapiens, UniProt Q09470).
T2 construct: expressed in transfected cells; host or cells: HEK293
In words: cell-based.

SMILES strings stand for the structures. Bridge positions count the residues as written; N and C are the ends. Square brackets hold non-standard residues; d marks the D form. Peptide text beside a SMILES is read from it. 1Nal = N[C@@H](Cc1cccc2ccccc12)C(=O)O

T1 sequence (P22001 whole entry): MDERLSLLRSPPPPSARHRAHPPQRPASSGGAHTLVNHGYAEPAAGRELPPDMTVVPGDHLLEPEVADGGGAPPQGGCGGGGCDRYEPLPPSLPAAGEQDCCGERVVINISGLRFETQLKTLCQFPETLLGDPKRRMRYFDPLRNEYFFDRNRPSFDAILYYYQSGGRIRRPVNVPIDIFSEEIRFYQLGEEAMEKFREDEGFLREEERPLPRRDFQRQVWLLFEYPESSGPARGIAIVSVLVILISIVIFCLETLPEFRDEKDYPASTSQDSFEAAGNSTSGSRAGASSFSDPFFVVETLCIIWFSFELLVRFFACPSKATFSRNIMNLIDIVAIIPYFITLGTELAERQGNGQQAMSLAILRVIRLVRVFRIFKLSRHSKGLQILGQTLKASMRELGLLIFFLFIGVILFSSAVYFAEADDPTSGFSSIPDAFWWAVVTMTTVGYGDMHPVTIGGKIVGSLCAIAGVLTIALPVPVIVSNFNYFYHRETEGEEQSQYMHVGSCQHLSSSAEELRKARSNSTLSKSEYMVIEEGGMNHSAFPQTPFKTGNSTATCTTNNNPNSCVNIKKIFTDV
T2 sequence (Q09470 whole entry): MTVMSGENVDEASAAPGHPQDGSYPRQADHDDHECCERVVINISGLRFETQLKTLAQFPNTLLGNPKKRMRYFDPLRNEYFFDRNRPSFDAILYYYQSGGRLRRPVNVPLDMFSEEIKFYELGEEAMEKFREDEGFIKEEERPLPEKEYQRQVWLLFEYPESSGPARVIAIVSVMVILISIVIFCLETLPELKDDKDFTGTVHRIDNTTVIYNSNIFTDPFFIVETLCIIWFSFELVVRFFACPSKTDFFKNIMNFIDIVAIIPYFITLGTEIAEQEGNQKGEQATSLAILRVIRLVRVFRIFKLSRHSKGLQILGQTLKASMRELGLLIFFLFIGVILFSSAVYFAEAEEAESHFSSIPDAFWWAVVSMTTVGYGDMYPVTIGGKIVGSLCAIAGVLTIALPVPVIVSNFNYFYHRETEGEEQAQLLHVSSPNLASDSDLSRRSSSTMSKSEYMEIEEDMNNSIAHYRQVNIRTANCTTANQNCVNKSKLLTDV

`CC[C@H](C)[C@@H]1NC(=O)[C@H](CCCCN)NC(=O)[C@@H](NC(=O)[C@H](CCCCN)NC(=O)[C@@H](NC(=O)[C@H](CC(N)=O)NC(=O)[C@@H](NC(=O)[C@@H](NC(=O)[C@@H](NC(=O)CN)C(C)C)[C@@H](C)CC)[C@@H](C)CC)C(C)C)CSSC[C@@H]2NC(=O)[C@H](CCCCN)NC(=O)CNC(=O)[C@H](CCC(=O)O)NC(=O)[C@H](CCCNC(=N)N)NC(=O)[C@H](CCSC)NC(=O)CNC(=O)[C@H](C)NC(=O)[C@H](CCCCN)NC(=O)[C@H](CCCCN)NC(=O)[C@@H]3CSSC[C@@H](C(=O)N[C@H](C(=O)N4CCC[C@H]4C(=O)N[C@@H](CCCCN)C(=O)O)[C@@H](C)O)NC(=O)[C@H](Cc4c[nH]cn4)NC(=O)[C@H](CSSC[C@H](NC(=O)[C@H](CCC(N)=O)NC(=O)[C@H](CCCNC(=N)N)NC(=O)[C@H](CO)NC1=O)C(=O)N[C@@H](CC(C)C)C(=O)N[C@@H](CCC(=O)O)C(=O)N1CCC[C@H]1C(=O)N3)NC(=O)[C@H](CCCCN)NC(=O)CNC(=O)[C@H](CC(N)=O)NC(=O)[C@H](CCSC)NC2=O` [F25E] (H-GVIINVKCKISRQCLEPCKKAGMREGKCMNGKCHCTPK-OH; disulfide 8-28, 14-33, 18-35): the IC50 on human Kv1.3 (CHO) and against human Kv1.1 (HEK293) was more than 3330 pM in each case.

For `CC[C@H](C)[C@@H]1NC(=O)[C@H](CCCCN)NC(=O)[C@@H](NC(=O)[C@H](CCCCN)NC(=O)[C@@H](NC(=O)[C@H](CC(N)=O)NC(=O)[C@@H](NC(=O)[C@@H](NC(=O)[C@@H](NC(=O)CN)C(C)C)[C@@H](C)CC)[C@@H](C)CC)C(C)C)CSSC[C@@H]2NC(=O)[C@H](CCCCN)NC(=O)CNC(=O)[C@H](Cc3cccc4ccccc34)NC(=O)[C@H](CCCNC(=N)N)NC(=O)[C@H](CCSC)NC(=O)CNC(=O)[C@H](C)NC(=O)[C@H](CCCCN)NC(=O)[C@H](CCCCN)NC(=O)[C@@H]3CSSC[C@@H](C(=O)N[C@H](C(=O)N4CCC[C@H]4C(=O)N[C@@H](CCCCN)C(=O)O)[C@@H](C)O)NC(=O)[C@H](Cc4c[nH]cn4)NC(=O)[C@H](CSSC[C@H](NC(=O)[C@H](CCC(N)=O)NC(=O)[C@H](CCCNC(=N)N)NC(=O)[C@H](CO)NC1=O)C(=O)N[C@@H](CC(C)C)C(=O)N[C@@H](CCC(=O)O)C(=O)N1CCC[C@H]1C(=O)N3)NC(=O)[C@H](CCCCN)NC(=O)CNC(=O)[C@H](CC(N)=O)NC(=O)[C@H](CCSC)NC2=O` [F25Nal] (H-GVIINVKCKISRQCLEPCKKAGMR[1Nal]GKCMNGKCHCTPK-OH; disulfide 8-28, 14-33, 18-35), the IC50 (commonly the concentration at which inhibition is half-maximal) at human Kv1.3 (CHO) came out at 28.6 pM; against human Kv1.1 (HEK293), 51.8 pM.

For the molecule `CC[C@H](C)[C@@H]1NC(=O)[C@H](CCCCN)NC(=O)[C@@H](NC(=O)[C@H](CCCCN)NC(=O)[C@@H](NC(=O)[C@H](CC(N)=O)NC(=O)[C@@H](NC(=O)[C@@H](NC(=O)[C@@H](NC(=O)CN)C(C)C)[C@@H](C)CC)[C@@H](C)CC)C(C)C)CSSC[C@@H]2NC(=O)[C@H](CCCCN)NC(=O)CNC(=O)[C@H](CCCNC(=N)N)NC(=O)[C@H](CCCNC(=N)N)NC(=O)[C@H](CCSC)NC(=O)CNC(=O)[C@H](C)NC(=O)[C@H](CCCCN)NC(=O)[C@H](CCCCN)NC(=O)[C@@H]3CSSC[C@@H](C(=O)N[C@H](C(=O)N4CCC[C@H]4C(=O)N[C@@H](CCCCN)C(=O)O)[C@@H](C)O)NC(=O)[C@H](Cc4c[nH]cn4)NC(=O)[C@H](CSSC[C@H](NC(=O)[C@H](CCC(N)=O)NC(=O)[C@H](CCCNC(=N)N)NC(=O)[C@H](CO)NC1=O)C(=O)N[C@@H](CC(C)C)C(=O)N[C@@H](CCC(=O)O)C(=O)N1CCC[C@H]1C(=O)N3)NC(=O)[C@H](CCCCN)NC(=O)CNC(=O)[C@H](CC(N)=O)NC(=O)[C@H](CCSC)NC2=O` [F25R] (H-GVIINVKCKISRQCLEPCKKAGMRRGKCMNGKCHCTPK-OH; disulfide 8-28, 14-33, 18-35), the half-maximal inhibitory concentration (IC50) against human Kv1.3 (CHO) was more than 3330 pM; against human Kv1.1 (HEK293) it was 817 pM.

With `CC[C@H](C)[C@@H]1NC(=O)[C@H](CCCCN)NC(=O)[C@@H](NC(=O)[C@H](CCCCN)NC(=O)[C@@H](NC(=O)[C@H](CC(N)=O)NC(=O)[C@@H](NC(=O)[C@@H](NC(=O)[C@@H](NC(=O)[C@H](C)N)C(C)C)[C@@H](C)CC)[C@@H](C)CC)C(C)C)CSSC[C@@H]2NC(=O)[C@H](CCCCN)NC(=O)CNC(=O)[C@H](Cc3ccccc3)NC(=O)[C@H](CCCNC(=N)N)NC(=O)[C@H](CCSC)NC(=O)CNC(=O)[C@H](C)NC(=O)[C@H](CCCCN)NC(=O)[C@H](CCCCN)NC(=O)[C@@H]3CSSC[C@@H](C(=O)N[C@H](C(=O)N4CCC[C@H]4C(=O)N[C@@H](CCCCN)C(=O)O)[C@@H](C)O)NC(=O)[C@H](Cc4c[nH]cn4)NC(=O)[C@H](CSSC[C@H](NC(=O)[C@H](CCC(N)=O)NC(=O)[C@H](CCCNC(=N)N)NC(=O)[C@H](CO)NC1=O)C(=O)N[C@@H](CC(C)C)C(=O)N[C@@H](CCC(=O)O)C(=O)N1CCC[C@H]1C(=O)N3)NC(=O)[C@H](CCCCN)NC(=O)CNC(=O)[C@H](CC(N)=O)NC(=O)[C@H](CCSC)NC2=O` [G1A] (H-AVIINVKCKISRQCLEPCKKAGMRFGKCMNGKCHCTPK-OH; disulfide 8-28, 14-33, 18-35), the IC50 was determined as 41.1 pM against human Kv1.3 (CHO) and 13.9 pM against human Kv1.1 (HEK293).

As for `CC[C@H](C)[C@@H]1NC(=O)[C@H](CCCCN)NC(=O)[C@@H](NC(=O)[C@H](CCCCN)NC(=O)[C@@H](NC(=O)[C@H](CC(N)=O)NC(=O)[C@@H](NC(=O)[C@@H](NC(=O)[C@@H](NC(=O)[C@@H](N)CCC(=O)O)C(C)C)[C@@H](C)CC)[C@@H](C)CC)C(C)C)CSSC[C@@H]2NC(=O)[C@H](CCCCN)NC(=O)CNC(=O)[C@H](Cc3ccccc3)NC(=O)[C@H](CCCNC(=N)N)NC(=O)[C@H](CCSC)NC(=O)CNC(=O)[C@H](C)NC(=O)[C@H](CCCCN)NC(=O)[C@H](CCCCN)NC(=O)[C@@H]3CSSC[C@@H](C(=O)N[C@H](C(=O)N4CCC[C@H]4C(=O)N[C@@H](CCCCN)C(=O)O)[C@@H](C)O)NC(=O)[C@H](Cc4c[nH]cn4)NC(=O)[C@H](CSSC[C@H](NC(=O)[C@H](CCC(N)=O)NC(=O)[C@H](CCCNC(=N)N)NC(=O)[C@H](CO)NC1=O)C(=O)N[C@@H](CC(C)C)C(=O)N[C@@H](CCC(=O)O)C(=O)N1CCC[C@H]1C(=O)N3)NC(=O)[C@H](CCCCN)NC(=O)CNC(=O)[C@H](CC(N)=O)NC(=O)[C@H](CCSC)NC2=O` [G1E] (H-EVIINVKCKISRQCLEPCKKAGMRFGKCMNGKCHCTPK-OH; disulfide 8-28, 14-33, 18-35), the values for the concentration for half-maximal inhibition (IC50) against human Kv1.3 (CHO) and on human Kv1.1 (HEK293) were 186 pM and 51 pM, respectively.

In the case of `CC[C@H](C)[C@@H]1NC(=O)[C@H](CCCCN)NC(=O)[C@@H](NC(=O)[C@H](CCCCN)NC(=O)[C@@H](NC(=O)[C@H](CC(N)=O)NC(=O)[C@@H](NC(=O)[C@@H](NC(=O)[C@@H](NC(=O)[C@@H](N)CCCNC(=N)N)C(C)C)[C@@H](C)CC)[C@@H](C)CC)C(C)C)CSSC[C@@H]2NC(=O)[C@H](CCCCN)NC(=O)CNC(=O)[C@H](Cc3ccccc3)NC(=O)[C@H](CCCNC(=N)N)NC(=O)[C@H](CCSC)NC(=O)CNC(=O)[C@H](C)NC(=O)[C@H](CCCCN)NC(=O)[C@H](CCCCN)NC(=O)[C@@H]3CSSC[C@@H](C(=O)N[C@H](C(=O)N4CCC[C@H]4C(=O)N[C@@H](CCCCN)C(=O)O)[C@@H](C)O)NC(=O)[C@H](Cc4c[nH]cn4)NC(=O)[C@H](CSSC[C@H](NC(=O)[C@H](CCC(N)=O)NC(=O)[C@H](CCCNC(=N)N)NC(=O)[C@H](CO)NC1=O)C(=O)N[C@@H](CC(C)C)C(=O)N[C@@H](CCC(=O)O)C(=O)N1CCC[C@H]1C(=O)N3)NC(=O)[C@H](CCCCN)NC(=O)CNC(=O)[C@H](CC(N)=O)NC(=O)[C@H](CCSC)NC2=O` [G1R] (H-RVIINVKCKISRQCLEPCKKAGMRFGKCMNGKCHCTPK-OH; disulfide 8-28, 14-33, 18-35), the figures for the 50% inhibitory concentration (IC50) at human Kv1.3 (CHO) and at human Kv1.1 (HEK293) were 68.8 pM and 9.91 pM, respectively.

Values taken from patent US20090299044A1 (priority 2006, published 2009).
